Where two headings read alike, the source gives them in different places.
How the values were obtained:
[1] = system: activation of MAPK within vascular endothelial cells induced by VEGF stimulation; experiment: Inhibitory activity against activation of MAPK within vascular endothelial cells induced by VEGF stimulation; assay type: cell-based; details: human funicular venous vascular endothelial cells, VEGF 50 ng/ml, phosphorylated MAPK by immunoblotting
Description: Measurement of Inhibitory Activity Against Activation of MAPK Within Vascular Endothelial Cells Induced by VEGF Stimulation
Human funicular venous vascular endothelial cells (purchased from Chronetics) were cultured in an EGM-2 medium (purchased from Chronetics) within an incubator containing 5% carbon dioxide until 50 to 70% confluent, and the culture was inoculated into wells, containing the same medium, in a 96-well flat-bottom plate in an amount of 1.5×10^5 per well. After cultivation at 37° C. overnight, the medium was replaced by an EBM-2 medium containing 0.5% fetal calf serum (purchased from Chronetics), followed by cultivation for 24 hr. A solution of the test compound in dimethyl sulfoxide was added to each well, and the cultivation was continued at 37° C. for additional one hr. A human recombinant vascular endothelial growth factor (hereinafter abbreviated to “VEGF”) was added to a final concentration of 50 ng/ml, and the stimulation of cells was carried out at 37° C. for 8 min. The medium was removed, the cells were washed with phosphate buffered saline (pH 7.4), and 10 μl of a solubilization buffer (Tris buffered saline (pH 7.4) containing 1% Triton X100, 2 mM sodium orthovanadylate, and 1 mM disodium ethylenediaminetetraacetate) was then added thereto. The mixture was shaken at 4° C. for one hr to solubilize the cells. An equal amount of Tris buffered saline containing 1% sodium laurylsulfate was added to and thoroughly mixed with the solution. This solution (2 μl) was adsorbed on a PVDF filter by dot blotting, and this filter was subjected to immunoblotting with anti-tyrosine phosphorylated MAPK antibody (purchased from Daiichi Pure Chemicals).
The level of phosphorylated MAPK was quantitatively determined with a densitometer, and the percentage phosphorylated MAPK in the presence of the test compound was determined by presuming the level of phosphorylated MAPK with the addition of VEGF in the absence of the test compound to be 100% and the level of phosphorylated MAPK in the absence of the test compound and VEGF to be 0%. The test compound concentration (IC50) necessary for inhibiting 50% of the activation of MAPK was calculated based on the percentage of phosphorylated MAPK.

Human glioma cells GL07 = experiment: Antitumor effect on human glioma cells (GL07) transplanted into nude mice; assay type: in vivo; details: 20 mg/kg once a day for 9 days; for inhibition in vivo at 20 mg/kg: Mus musculus, Glioma cell, 216 h, read-out: TGIR, % (tumor growth inhibition rate)
Outline: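 GL07 xenografts in nude mice, grouped (n=4) at ~100 mm^3 tumor volume. Test compound 20 mg/kg p.o. or i.p. once daily for 9 days; vehicle controls. TGIR = (1−Tx/Cx)×100 from tumor volumes normalized to day-of-start volume = 1.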

human KDR = target: T1, human KDR (Homo sapiens, UniProt P35968); experiment: Inhibitory activity against KDR phosphorylation by ELISA; assay type: cell-based; details: NIH 3T3 cells transfected with human KDR, VEGF 100 ng/ml
T1 construct: expressed in transfected cells; host or cells: NIH 3T3 cells (Sawano A et al., Cell Growth & Differentiation 7, 213-221 (1996))
T1 sequence (P35968 20-1356): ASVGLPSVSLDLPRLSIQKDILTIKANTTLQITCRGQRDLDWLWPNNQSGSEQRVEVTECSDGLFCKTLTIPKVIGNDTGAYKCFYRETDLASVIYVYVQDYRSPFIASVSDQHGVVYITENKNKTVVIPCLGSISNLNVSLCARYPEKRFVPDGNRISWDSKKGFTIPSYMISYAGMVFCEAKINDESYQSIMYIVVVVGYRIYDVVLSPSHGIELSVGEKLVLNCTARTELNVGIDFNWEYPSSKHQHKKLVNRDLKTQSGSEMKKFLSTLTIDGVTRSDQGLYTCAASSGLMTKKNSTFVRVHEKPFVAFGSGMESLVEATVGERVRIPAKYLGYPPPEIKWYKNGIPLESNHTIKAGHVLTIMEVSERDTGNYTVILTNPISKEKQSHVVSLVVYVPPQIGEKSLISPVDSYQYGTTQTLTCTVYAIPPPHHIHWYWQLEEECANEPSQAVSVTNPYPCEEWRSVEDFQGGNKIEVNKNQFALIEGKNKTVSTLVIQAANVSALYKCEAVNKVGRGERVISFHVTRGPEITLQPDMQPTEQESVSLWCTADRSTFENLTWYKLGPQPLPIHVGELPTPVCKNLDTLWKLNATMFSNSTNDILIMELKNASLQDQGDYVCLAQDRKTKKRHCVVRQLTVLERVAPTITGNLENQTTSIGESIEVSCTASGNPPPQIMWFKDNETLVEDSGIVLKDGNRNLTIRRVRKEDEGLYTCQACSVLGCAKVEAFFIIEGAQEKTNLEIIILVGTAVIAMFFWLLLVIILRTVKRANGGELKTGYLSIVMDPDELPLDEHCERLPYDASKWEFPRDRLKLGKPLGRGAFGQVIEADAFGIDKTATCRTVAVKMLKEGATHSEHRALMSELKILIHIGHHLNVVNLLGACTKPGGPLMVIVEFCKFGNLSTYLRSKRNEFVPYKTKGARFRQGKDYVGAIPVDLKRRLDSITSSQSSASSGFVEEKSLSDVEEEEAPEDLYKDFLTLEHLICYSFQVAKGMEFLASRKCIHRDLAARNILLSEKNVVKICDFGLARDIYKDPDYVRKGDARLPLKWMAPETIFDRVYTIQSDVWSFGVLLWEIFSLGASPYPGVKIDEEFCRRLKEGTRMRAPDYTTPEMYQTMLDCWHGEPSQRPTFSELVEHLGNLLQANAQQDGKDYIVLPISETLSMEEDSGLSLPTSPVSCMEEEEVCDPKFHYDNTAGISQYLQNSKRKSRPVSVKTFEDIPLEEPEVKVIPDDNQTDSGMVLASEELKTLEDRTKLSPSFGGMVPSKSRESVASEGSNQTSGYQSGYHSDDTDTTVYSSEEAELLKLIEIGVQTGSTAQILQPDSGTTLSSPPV

COc1cc2nccc(Oc3ccc(NC(=O)NCc4ccc(F)cc4F)c(F)c3)c2cc1OC [Example 1, N-(2,4-Difluorobenzyl)-N′-{4-[(6,7-dimethoxy-4-quinolyl)oxy]-2-fluorophenyl}urea]
IC50 ([1]; Endothelial cell): 1.8 nM

C=CCNC(=O)Nc1ccc(Oc2ccnc3cc(OC)c(OC)cc23)cc1F [Example 4, N-Allyl-N′-{4-[(6,7-dimethoxy-4-quinolyl)-oxy]-2-fluorophenyl}urea]
IC50 ([1]; Endothelial cell): 2.1 nM
inhibition in vivo at 20 mg/kg (Human glioma cells GL07; GL07, oral): 61%

CCCNC(=O)Nc1ccc(Oc2ccnc3cc(OC)c(OC)cc23)cc1F [Example 5, N-{4-[(6,7-Dimethoxy-4-guinolyl)oxy]-2-fluorophenyl}-N′-propylurea]
IC50 [1]: 2.9 nM
TGIR, % (tumor growth inhibition rate) (Human glioma cells GL07; GL07, oral): 59%

C#CCNC(=O)Nc1ccc(Oc2ccnc3cc(OC)c(OC)cc23)cc1F [Example 7, N-{4-[(6,7-Dimethoxy-4-quinolyl)oxy]-2-fluorophenyl}-N′-(2-propynyl)urea]
IC50 ([1]; Endothelial cell): 5.2 nM

CCNC(=O)Nc1ccc(Oc2ccnc3cc(OC)c(OC)cc23)cc1F [Example 8, N-{4-[(6,7-Dimethoxy-4-guinolyl)oxy]-2-fluorophenyl}-N′-ethylurea]
IC50 [1]: 11 nM

CCCCNC(=O)Nc1ccc(Oc2ccnc3cc(OC)c(OC)cc23)cc1F [Example 9, N-Butyl N′-{4-[(6,7-dimethoxy-4-quinolyl)oxy]-2-fluorophenyl}urea]
IC50 ([1]; Endothelial cell): 5.1 nM
inhibition in vivo at 20 mg/kg (Human glioma cells GL07; ip, GL07, intraperitoneal): 59%

CCC(C)NC(=O)Nc1ccc(Oc2ccnc3cc(OC)c(OC)cc23)cc1F (stereo not shown) [Example 10, N-(sec-Butyl)-N′-{4-[(6,7-dimethoxy-4-quinolyl)oxy]-2-fluorophenyl}urea]
IC50 ([1]; Endothelial cell): 7.8 nM

COc1cc2nccc(Oc3ccc(NC(=O)NCC(C)C)c(F)c3)c2cc1OC [Example 11, N-{4-[(6,7-Dimethoxy-4-quinolyl)oxy]-2-fluorophenyl}-N′-isobutylurea]
IC50 ([1]; Endothelial cell): 15 nM

COc1cc2nccc(Oc3ccc(NC(=O)Nc4ccccc4C)c(Cl)c3)c2cc1OC [Example 19, N-{2-Chloro-4-[(6,7-dimethoxy-4-quinolyl)oxy]phenyl}-N′-(2-methylphenyl)urea]
IC50 ([1]; Endothelial cell): 0.6 nM

COc1cc2nccc(Oc3ccc(NC(=O)Nc4cccc5ccccc45)c(Cl)c3)c2cc1OC [Example 23, N-{2-Chloro-4-[(6,7-dimethoxy-4-guinolyl)oxy]phenyl}-N′-(1-naphthyl)urea]
IC50 [1]: 5.4 nM

COc1cc2c(Oc3ccc(NC(=O)Nc4ccc(F)cc4F)c(F)c3)ccnc2cc1OCCN1CCOCC1 [Example 50, N-(2,4-Difluorophenyl)-N′-(2-fluoro-4-{[6-methoxy-7-(2-morpholinoethoxy)-4-quinolyl]oxy}phenyl)-urea]
IC50 ([1]; Endothelial cell): 0.5 nM
inhibition in vivo at 20 mg/kg (Human glioma cells GL07; GL07, oral): 59%

COCCOc1cc2nccc(Oc3ccc(NC(=O)Nc4ccc(F)cc4F)c(Cl)c3)c2cc1OC [Example 54, N-(2-Chloro-4-{[6-methoxy-7-(2-methoxyethoxy)-4-quinolyl]oxy}phenyl)-N′-(2,4-difluorophenyl)urea]
IC50 ([1]; Endothelial cell): 0.5 nM
inhibition in vivo at 20 mg/kg (Human glioma cells GL07; GL07, oral): 59%

COCCOc1cc2nccc(Oc3ccc(NC(=O)Nc4ccc(F)cc4F)c(C)c3C)c2cc1OC [Example 56, N-(2,4-Difluorophenyl)-N′-(4-{[6-methoxy-7-(2-methoxyethoxy)-4-quinolyl]oxy}-2,3-dimethylphenyl)-urea]
IC50 ([1]; Endothelial cell): 5.1 nM

COCCOc1cc2nccc(Oc3ccc(NC(=O)Nc4ccccc4OC)c(C)c3C)c2cc1OC [Example 57, N-(4-{[6-Methoxy-7-(2-methoxyethoxy)-4-quinolyl]oxy}-2,3-dimethylphenyl)-N′-(2-methoxyphenyl)urea]
IC50 ([1]; Endothelial cell): 6.5 nM

CCNC(=O)Nc1ccc(Oc2ncnc3cc(OC)c(OC)cc23)cc1 [Example 63, N-{4-[(6,7-Dimethoxy-4-quinazolinyl)oxy]-phenyl}-N′-ethylurea]
IC50 ([1]; Endothelial cell): 70 nM
IC50 (human KDR): 150 nM

COc1cc2ncnc(Oc3ccc(NC(=O)NCc4ccc(F)cc4F)cc3)c2cc1OC [Example 70, N-(2,4-Difluorobenzyl)-N′-{4-[(6,7-dimethoxy-4-quinazolinyl)oxy]phenyl}urea]
IC50 ([1]; Endothelial cell): 6.8 nM
IC50 (human KDR): 32 nM

COc1cc2c(Oc3cc(C)c(NC(=O)Nc4ccc(F)cc4F)cc3C)ccnc2cc1OCCn1ccnn1 [Example 177, N-(2,4-Difluorophenyl)-N′-[4-({6-methoxy-7-[2-(1H-1,2,3-triazol-1-yl)ethoxy]-4-guinolyl}oxy)-2,5-dimethylphenyl]urea]
IC50 (human KDR): 2.3 nM
inhibition in vivo at 20 mg/kg (Human glioma cells GL07; GL07, oral): 35%

COc1cc2c(Oc3ccc(NC(=O)N(C)C)c(Cl)c3)ncnc2cc1OCCN1CCOCC1 [Example 178, N′-(2-Chloro-4-{[6-methoxy-7-(2-morpholinoethoxy)-4-quinazolinyl]oxy}phenyl)-N,N-dimethylurea]
IC50 (human KDR): > 1000 nM
inhibition in vivo at 20 mg/kg (Human glioma cells GL07; GL07, oral): 28%

COc1cc2c(Oc3ccc(NC(=O)N(C)C)c(Cl)c3)ncnc2cc1OCCCCN1CCOCC1 [Example 179, N′-(2-Chloro-4-{[6-methoxy-7-(4-morpholinobutoxy)-4-quinazolinyl]oxy}phenyl)-N,N-dimethylurea]
IC50 (human KDR): > 1000 nM
inhibition in vivo at 20 mg/kg (Human glioma cells GL07; GL07, oral): 33%

COc1cc2c(Oc3ccc(NC(=O)N(C)C)c(Cl)c3)ncnc2cc1OCc1ccncc1 [Example 180, N′-(2-Chloro-4-{[6-methoxy-7-(4-pyridylmethoxy)-4-quinazolinyl]oxy}phenyl)-N,N-dimethylurea]
IC50 (human KDR): > 1000 nM
inhibition in vivo at 20 mg/kg (Human glioma cells GL07; GL07, oral): 45%

COC(=O)COc1cc2ncnc(Oc3ccc(NC(=O)N(C)C)c(Cl)c3)c2cc1OC [Example 181, Methyl 2-{[4-(3-chloro-4-{[(dimethylamino)carbonyl]amino}phenoxy)-6-methoxy-7-quinazolinyl]oxy}acetate]
IC50 (human KDR): > 1000 nM
inhibition in vivo at 20 mg/kg (Human glioma cells GL07; GL07, oral): 21%

COc1cc2c(Oc3ccc(NC(=O)N(C)C)c(Cl)c3)ncnc2cc1OCCCN1CCN(C)CC1 [Example 182, N′-[2-Chloro-4-({6-methoxy-7-[3-(4-methylpiperazino)propoxy]-4-quinazolinyl}oxy)phenyl]-N,N-dimethylurea]
IC50 (human KDR): > 1000 nM
inhibition in vivo at 20 mg/kg (Human glioma cells GL07; GL07, oral): 31%

COc1cc2c(Oc3ccc(NC(=O)N(C)C)c(Cl)c3)ncnc2cc1OCCCN(C)CCO [Example 183, N′-{2-Chloro-4-[(7-{3-[(2-hydroxyethyl)-(methyl)amino]propoxy}-6-methoxy-4-quinazolinyl)oxy]-phenyl}-N,N-dimethylurea]
IC50 (human KDR): > 1000 nM
inhibition in vivo at 20 mg/kg (Human glioma cells GL07; GL07, oral): 22%

CNC(=O)Nc1ccc(Oc2ncnc3cc(OCCCN4CCCCC4)c(OC)cc23)cc1Cl [Example 184, N-(2-chloro-4-{[6-methoxy-7-(3-piperidinopropoxy)-4-quinazolinyl]oxy}phenyl)-N′-methylurea]
IC50 (human KDR): 0.2 nM
inhibition in vivo at 20 mg/kg (Human glioma cells GL07; GL07, oral): 48%

CCNC(=O)Nc1ccc(Oc2ncnc3cc(OCCCN4CCCCC4)c(OC)cc23)cc1Cl [Example 185, N-(2-chloro-4-{[6-methoxy-7-(3-piperidinopropoxy)-4-quinazolinyl]oxy}phenyl)-N′-ethylurea]
IC50 (human KDR): 0.5 nM
inhibition in vivo at 20 mg/kg (Human glioma cells GL07; GL07, oral): 59%

COc1cc2c(Oc3ccc(NC(=O)Nc4ccc(F)cc4F)c(Cl)c3)ccnc2cc1OCc1ccncc1 [Example 186, N-(2-chloro-4-{[6-methoxy-7-(4-pyridylmethoxy)-4-quinolyl]oxy}phenyl)-N′-(2,4-difluorophenyl)urea]
IC50 (human KDR): 6.3 nM
inhibition in vivo at 20 mg/kg (Human glioma cells GL07; GL07, oral): 47%
